Laboratory results taken from US9345704B2, “Materials and methods for suppressing and/or treating neurofibroma and related tumors” (Indiana University Research and Technology Corp., priority 2008, dated 2016).
Where a name gives a salt, the structure may show the parent alone.

System: trigeminal plexiform neurofibroma
Experiment: Compassionate use treatment with imatinib mesylate of a child presenting with a plexiform neurofibroma (MRI)
Type: in vivo, human
Excerpt: Plexiform neurofibromas primarily present in infants and young children with NF1 are frequently characterized by rapid growth and invasion into adjacent organs often resulting in impairment of normal organ function. In addition, these tumors have a high likelihood of progressing to malignancy for which there is no cure.

SMILES: Cc1ccc(NC(=O)c2ccc(CN3CCN(C)CC3)cc2)cc1Nc1nccc(-c2cccnc2)n1 [imatinib mesylate, 4-(4-methylpiperazin-1-ylmethyl)-N-[4-methyl-3-(4-(pyridin-3-yl)pyrimidin-2-ylamino)phenyl]-benzamide]
- side effects (NF1 patient, 350 mg/m2/dose, treatment for six months): no observed side effects
- tumor size (coronal MRI) (before vs 6 months following treatment): profound decrease in tumor size
- upper airway (axial MRI) (before vs after 6 months of treatment): marked improvement with airway enlargement
- recurrence of symptoms off treatment (off treatment for six months after six months of treatment): without a recurrence of symptoms
